This note sets out measurements from patent US20260232714A1, “COMPOSITION CONTAINING NICOTINAMIDE MONONUCLEOTIDE” (MEIJI HOLDINGS CO., LTD., priority 2023, published 2026).

Entries after “also recorded” stand apart in the source; their conditions may differ.

A short description of this data set: Test 1: blood NMN concentration after oral or sublingual administration of NMN (plasma, LC-MS/MS). The data set is classed as in vivo, human. Here is the method: Tablets were used for oral administration. The content of NMN was 500 mg.
Powder was used for sublingual administration. The content of NMN was 250 mg.
One adult with no abnormal health conditions participated in the test. The test was conducted over two separate days.
Then, 250 mg of NMN (powder) was placed under the tongue, so that the powder was dissolved with saliva, and the test subject was maintained in that state. After 1 minute, the test subject spit out all NMN from the mouth, and blood was collected from the fingertip 5, 10, 15, and 30 minutes after the NMN was placed under the tongue.
NMN concentration was determined by LC-MS/MS. Details of the measurements are described below.
• Liquid A: 5 mM Ammonium formate aqueous solution • Liquid B: Acetonitrile

Setting [1] is: sublingual administration, in some test subjects.

For the compound `NC(=O)c1ccc[n+]([C@@H]2O[C@H](COP(=O)([O-])O)[C@@H](O)[C@H]2O)c1` [NMN, nicotinamide mononucleotide], the “blood NMN concentration compared with that observed before NMN ingestion (0 minute)” value (oral administration, one tablet 500 mg NMN with water, one adult, 5-60 minutes, plasma) is listed as “virtually unchanged; also recorded: does not increase; also recorded: almost unchanged”. Under setting [1], the maximum blood concentration was at least 5 µg/mL and the “time to reach the maximum blood concentration after administration” value is listed as “about 5 minutes”.
